{"source": "patent US20210228500A1", "about": "“CELLULAR RETINOID BINDING PROTEIN ANTAGONISTS AND USES THEREOF” (CASE WESTERN RESRVE UNIVERSITY, priority 2018, published 2021)", "key": {"[1]": {"tested_on": "visual cycle retinoids in mouse eye", "assay": "Photobleaching and visual chromophore regeneration, ocular retinoid analysis", "format": "in vivo, Balb/cJ mice", "settings": "0.25 mg 1.5 h prior to flash of light bleaching 75% of rhodopsin", "description": "Balb/cJ mice were dark adapted for at least 24 h before the experiment. […] After the light exposure, the mice were kept in dark and euthanized at time intervals between 1 min to 8 h. The eyes were removed, flash frozen in liquid nitrogen, and stored in −80° C. until retinoid analysis.\nAll procedures related to the retinoid analysis were done under dim red light. To extract retinoids, enucleated eyes were transferred to a glass/glass homogenizer and submerged in 1 mL of 40 mM hydroxylamine in a 1:1 solution of PBS/methanol (v/v). The eyes were thoroughly homogenized and incubated at RT for 20 min to allow derivatization of retinylaldehydes to retinaldehdye oximes. The retinoids were extracted with 4 mL of hexane. To facilitate the fraction separation, the samples were centrifuged at 5000 g for 10 min, after which the upper organic phase was collected in a glass test tube. The organic solvent was dried in a rotary SpeedVac, and the residual retinoids were redissolved in […] of hexanes, and subjected to HPLC analysis. Separation of retinoids was achieved on a normal phase column (Agilent Zorbax Sil 5 μm 4.6×250 mm) in a step gradient of ethyl acetate in hexane (1% for 10 min followed by 10% for 40 min at a constant flow rate of 1.5 mL min^−1). Elution of retinoids was monitored at 325 and 360 nm wavelengths. All-trans-retinyl esters, all-trans- and 11-cis-retinaldehdye oximes as well as atROL were identified based on their elution times and characteristic UV/vis spectra. Retinoids were quantified based on linear correlations between the amount of injected synthetic standards and the area under chromatographic peaks.\nNext, we examined the impact of abn-CBD on vitamin A metabolism in vivo. For this purpose, we analyzed the flow of retinoids via the visual cycle during the regeneration of visual chromophore after exposure to bright light. […] The light intensity was set up to cause photoisomerization in 75% of rhodopsin as indicated by the decrease in the amount of 11-cis-retinal measured immediately after the light exposure (FIG. 7). […]"}, "[2]": {"target": "T1, LRAT (Bos taurus, UniProt Q9BGL2)", "T1 construct": "from tissue; host or cells: bovine RPE microsomes", "T1 sequence (Q9BGL2 1-230)": "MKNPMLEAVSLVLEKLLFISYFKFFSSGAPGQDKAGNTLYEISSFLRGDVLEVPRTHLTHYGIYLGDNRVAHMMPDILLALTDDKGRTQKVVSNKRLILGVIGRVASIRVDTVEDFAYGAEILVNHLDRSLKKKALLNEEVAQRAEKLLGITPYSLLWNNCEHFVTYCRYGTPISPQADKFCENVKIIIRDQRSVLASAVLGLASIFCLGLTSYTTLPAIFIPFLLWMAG", "assay": "Retinol esterification assay", "format": "biochemical", "settings": "bovine RPE microsomes preincubated with 10-50 μM", "description": "The enzymatic activity of LRAT was assayed using isolated UV-treated bovine RPE microsomes as described previously. The reaction mixture included 20 mM Tris/HCl buffer, pH 7.4, 1 mM DTT, 1% bovine serum albumin (BSA; w/v), and RPE microsomes (˜100 μg of total protein) in the total volume of 0.1 mL. To test the influence of abn-CBD on the LRAT activity, 10, 20, or 50 μM of this compound was added prior to the addition of atROL (final concentration of 10 μM). To record the initial rate of the esterification, the mixture was incubated at RT for 5 min. The reaction was quenched with 0.2 mL of methanol, and the retinoids were extracted with 0.3 mL of hexane. The extracted retinoids were separated on a normal phase column (Agilent Zorbax Sil 5 μm 4.6×250 mm) in an isocratic flow of 10% ethyl acetate in hexane (flow rate of 1.5 mL min^−1). Elution of retinoids was monitored at 325 nm. All-trans-retinyl esters were quantified based on a correlation between the amount of injected synthetic standards and the area under chromatographic peaks.\nThus, to further probe the biological effect of this compound, we tested its effect on the key enzymes of the visual cycle. […]"}}}
{"smiles": "C=C(C)[C@@H]1CCC(C)=C[C@H]1c1c(O)cc(O)cc1CCCCC", "note": "[abn-CBD, 4-[(1R,6R)-3-Methyl-6-prop-1-en-2-ylcyclohex-2-en-1-yl]-5-pentylbenzene-1,3-diol]", "values": [{"measurement": "atROL level during chromophore regeneration", "setting": "[1]", "result": "transient accumulation of atROL"}, {"measurement": "rate of 11-cis-retinaldehyde regeneration", "setting": "[1]", "result": "noticeably slower"}, {"measurement": "rate of all-trans-retinaldehyde clearance vs control", "setting": "[1]", "result": "no differences"}, {"measurement": "effect on enzymatic activity of LRAT", "setting": "[2]", "result": "did not cause a measurable decline"}]}
